This is an account of results in BindingDB's records for patent US20250136619 (Halda Therapeutics OPCO, 2025).

In this assay the target is Tyrosine-protein kinase BTK (Homo sapiens, UniProt Q06187). As to the kind of experiment: Assay for Binding Affinity to BTK. Here is the method: Compounds were tested using a KdELECT assay. Kinase-tagged T7 phage strains were prepared in an E. coli host derived from the BL21 strain. E. coli were grown to log-phase and infected with T7 phage and incubated with shaking at 32° C. until lysis. The lysates were centrifuged and filtered to remove cell debris. The remaining kinases were produced in HEK-293 cells and subsequently tagged with DNA for qPCR detection. Streptavidin-coated magnetic beads were treated with biotinylated small molecule ligands for 30 minutes at room temperature to generate affinity resins for kinase assays. The liganded beads were blocked with excess biotin and washed with blocking buffer (SeaBlock (Pierce), 1% BSA, 0.05% Tween 20, 1 mM DTT) to remove unbound ligand and to reduce non-specific binding. Binding reactions were assembled by combining kinases, liganded affinity beads, and test compounds in 1× binding buffer (20% SeaBlock, 0.17×PBS, 0.05% Tween 20, 6 mM DTT). Test compounds were prepared as 111X stocks in 100% DMSO. Kd values were determined using an 11-point 3-fold compound dilution series with three DMSO control points. All compounds for Kd measurements are distributed by acoustic transfer (non-contact dispensing) in 100% DMSO. The compounds were then diluted directly into the assays such that the final concentration of DMSO was 0.9%. […] The kinase concentration in the eluates was measured by qPCR.

The structures appear in SMILES notation.

Chain of Tyrosine-protein kinase BTK (Q06187 whole entry): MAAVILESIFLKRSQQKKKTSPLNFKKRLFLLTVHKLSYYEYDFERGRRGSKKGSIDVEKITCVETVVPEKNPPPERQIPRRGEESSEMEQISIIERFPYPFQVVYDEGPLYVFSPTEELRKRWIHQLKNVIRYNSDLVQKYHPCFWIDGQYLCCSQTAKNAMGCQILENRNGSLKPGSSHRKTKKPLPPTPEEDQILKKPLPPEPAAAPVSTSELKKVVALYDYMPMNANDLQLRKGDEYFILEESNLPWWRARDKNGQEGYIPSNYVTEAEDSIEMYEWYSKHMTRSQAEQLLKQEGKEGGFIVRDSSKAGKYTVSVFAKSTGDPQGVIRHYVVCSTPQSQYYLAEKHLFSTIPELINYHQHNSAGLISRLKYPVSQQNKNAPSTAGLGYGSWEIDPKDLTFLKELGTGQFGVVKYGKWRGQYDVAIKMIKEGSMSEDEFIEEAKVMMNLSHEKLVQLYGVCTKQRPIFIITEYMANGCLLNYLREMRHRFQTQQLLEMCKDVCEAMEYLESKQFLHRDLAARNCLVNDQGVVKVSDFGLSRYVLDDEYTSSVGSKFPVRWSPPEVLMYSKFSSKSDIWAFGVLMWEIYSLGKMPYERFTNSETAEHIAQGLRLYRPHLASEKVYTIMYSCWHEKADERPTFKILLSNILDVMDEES

For orientation: Kd means the constant that tells how readily two partners part at equilibrium. A low value points to a tighter complex. In the case of `CCc1cnn2c(NCc3ccc(OCCOCCOCCOCCOCCOCCOCCOCCOCCOC/C=C/C(=O)N4CCC[C@@H](n5nc(-c6ccc(Oc7ccccc7)cc6)c6c(N)ncnc65)C4)nc3)cc(N3CCCC[C@H]3CCO)nc12` [US20250136619, Compound I-47], the Kd is less than 0.05 µM.
